What was measured:
[1] = MTT cell viability assay, NHDF; format: cell-based, human; conditions: human, normal human dermal fibroblasts (NHDF), single concentration of 10 µM, 72 h, mean ± SD; read-out: cell viability percentage in relation with control, NHDF
Procedure: (§1) Caco-2, MCF-7, PC-3, and NHDF cell lines were obtained from the American Type Culture Collection (ATCC) and maintained in 75 cm^2 culture flasks in a humidified atmosphere at 37 °C with 5% carbon dioxide using a LEEC Culture Safe Precision CO2 Incubator. The culture media was renewed every two to three days. The NHDF cell line was cultured in Roswell Park Memorial Institute (RPMI) medium supplemented with 10% of inactivated fetal bovine serum (FBS), 2 mM of L-glutamine, 10 mM of 4-(2-hydroxyethyl)-1-piperazineethanesulfonic acid (HEPES), 1 mM of sodium pyruvate, and 1% of antibiotic/antimycotic mixture (Ab; 10,000 U/mL of penicillin G, […] of streptomycin, and 25 µg/mL of amphotericin B). The PC-3 cell line was also cultured in RPMI 1640 medium supplemented with 10% inactivated FBS and 1% of an antibiotic mixture (Sp; 10,000 U/mL of penicillin G and […] of streptomycin). The Caco-2 and MCF-7 cell lines were grown in Dulbecco’s Modified Eagle Medium (DMEM). Caco-2 was supplemented with 20% of inactivated FBS and 1% of Sp. On the other hand, the MCF-7 medium was complemented with 10% of inactivated FBS and 1% of Ab. All manipulations were performed in a Labculture Class II A2 Biological Safety Cabinet.
(§2) After the near confluency of cultures, cells were detached with a solution of 0.125 g/L trypsin and 0.02 g/L ethylenediaminetetracetic acid (EDTA), counted using the trypan blue method, resuspended, and seeded in 96-well culture plates (100 µL, 2 × 10^4 cells/mL). Following 48 h of adherence, cells were treated with the test solutions and incubated for 72 h. This incubation, as well as the solution manipulations, were performed in an environment protected from light. After the incubation, the medium was replaced with a fresh incomplete culture medium (without FBS and Ab or Sp) and MTT solution (5 mg/mL in phosphate buffer saline (PBS)). After additional incubation for 4 h, the MTT medium was removed, formazan crystals were dissolved in DMSO, and the optical density of each well was measured at 570 nm using a microplate spectrophotometer Bio-Rad xMark. Untreated cells were used as a negative control and 5-FU as the positive control. The results were expressed as the relative cell proliferation relative to the negative control cells. […] To determine the IC50 values, Caco-2, MCF-7, PC-3, and NHDF cells were exposed to increasing concentrations between 0.001 and 100 μM.

[2] = test system: normal human dermal fibroblasts (NHDF); assay: MTT cell viability assay, NHDF; format: cell-based; conditions: Homo sapiens, NHDF, 72 h, 72 h of incubation, MTT, protected from light
Procedure: as §1, §2

[3] = MTT cell viability assay, Caco-2; format: cell-based, human; conditions: human, Caco-2, Caco-2 versus NHDF, 72 h; read-out: SI Caco-2 (selectivity index, cancer versus NHDF)
Procedure: as §1, §2

[4] = test system: Caco-2 colorectal adenocarcinoma cell line; assay: MTT cell viability assay, Caco-2; format: cell-based, human; conditions: Homo sapiens, Caco-2, 72 h; for IC50: 72 h of incubation, MTT, protected from light; for viability at 10 µM: single concentration of 10 µM, 72 h, mean ± SD, read-out: cell viability percentage in relation with control, Caco-2
Procedure: as §1, §2

[5] = test system: MCF-7 breast adenocarcinoma cell line; assay: MTT cell viability assay, MCF-7; format: cell-based, human; conditions: Homo sapiens; for viability at 10 µM: MCF7, 72 h, single concentration of 10 µM, 72 h, mean ± SD, read-out: cell viability percentage in relation with control, MCF-7
Procedure: as §1, §2

[6] = test system: PC-3 prostate adenocarcinoma cell line; assay: MTT cell viability assay, PC-3; format: cell-based, human; conditions: for viability at 10 µM: single concentration of 10 µM, mean ± SD, read-out: cell viability percentage in relation with control, PC-3
Procedure: as §1, §2

Caco-2 cells [7] = assay: Apoptosis by propidium iodide staining and flow cytometry; format: cell-based, human
Procedure: (§3) The apoptosis occurrence and influence of the dye 12 on the cell cycle were evaluated using propidium iodide (PI) staining and flow cytometry, as described by Riccardi and Nicolleti. After the near confluency of the culture, trypsinisation, and counting, Caco-2 cells were seeded (2 mL, 3 × 10^4 cells/mL) in 6-well plates. After 48 h of adherence, the cells were treated with the test solutions (3 mL and 5 mL for negative control) and incubated for 72 h. Untreated cells were used as the negative control, and sorbitol and 5-FU [56] were used as positive controls for the apoptosis and cell cycle distribution studies, respectively. After incubation, the supernatant was collected and the cells were washed with PBS and combined with the cells harvested using the trypsin treatment. This cell suspension was maintained on ice and centrifugated, and then the pellet was resuspended in 0.5 mL of PBS. The cells were fixed by adding 4.5 mL of 70% ethanol cooled at −20 °C and were stored at the same temperature. For the cytometry analysis, PBS was added to the fixed cells before centrifugation, and then the ethanolic supernatant was removed. The pellet was resuspended in 0.5 mL of PBS and 0.5 mL of DNA extraction (192 mL of 0.2 M sodium phosphate and 8 mL of […], pH 7.8) was added. After incubation for 5 min, the cells were centrifuged, the supernatant was removed, and the pellet resuspended in 0.3 mL of staining solution (20 µg/mL of PI and 0.2 mg/mL of DNase-free RNase in PBS). Using a FACSCalibur flow cytometer and the 488 nm laser line, a minimum of 20,000 events were recorded. Acquisition and apoptosis analysis was performed using BD CellQuestTM Pro 4.0.2 Software. Cell cycle analysis was performed with ModFit LT 5.0.9 software. To exclude debris and necrotic cells, events with a lower diameter (forward scatter; FCS) and reduced PI fluorescence (FL3) than the hypodiploid apoptotic cells were eliminated. Two independent experiments were performed.

Caco-2 cells [8] = assay: Cell cycle distribution by propidium iodide staining and flow cytometry; format: cell-based, human; conditions: dye 12 and 5-FU 10 µM 72 h, sorbitol 600 mM 24 h, versus untreated cells
Procedure: as §3

Caco-2 cells [9] = assay: Morphological analysis by inverted microscopy; format: cell-based, human; conditions: 10 µM, 72 h, 20 or 40× magnification, versus untreated cells
Procedure: After the near confluency of the culture, trypsinisation, and counting, Caco-2 cells were seeded (3 mL; 3 × 10^4 cells/mL) in 35 mm cell culture dishes with treatment for the tissue culture. Following 48 h of adherence, the cells were treated with the test solutions and incubated for 72 h in an environment protected from light. At every 24 h, cellular morphology was verified in an Olympus CKX41 SF inverted microscope with a 10, 20, or 40× objective, and the analysis was based on comparing the cells with and without treatment. Cell imaging was captured using a DC6V Olympus digital camera coupled to the microscope.

IC50 [4] [µM]	melting point [°C]	IC50 ([5]; MCF7, 72 h of incubation, MTT, protected from light) [µM]	IC50 ([6]; Homo sapiens, 72 h of incubation, MTT, protected from light) [µM]	Structure (SMILES)	viability at 72 h, 10 µM [1] [%]	IC50 [2] [µM]	selectivity ratio at 72 h [3]	viability at 10 µM [4] [%]	viability at 10 µM [5] [%]	viability at 10 µM ([6]; Homo sapiens, 72 h, 72 h) [%]	apoptosis induced (percent of cells) (Caco-2 cells [7]; Caco-2, dye 12 10 µM 72 h, sorbitol 600 mM 24 h)	effect on cell cycle distribution (Caco-2 cells [8])	SI PC-3 (selectivity index, cancer versus NHDF) ([6]; PC-3 versus NHDF, 72 h)	increase in apoptotic cells relative to untreated cells (Caco-2 cells [7]; Caco-2, 10 µM, 72 h)	morphological changes of Caco-2 cells (Caco-2 cells [9])
0.58	240 to 241			CN1C(=Cc2ccc3ccccc3[n+]2C)C=Cc2ccccc21.[I-] [Dye 13, 1-Methyl-2-((1-methylquinolin-2(1H)-ylidene)methyl)quinolin-1-ium iodide]	8.37 ± 2.26	0.59	1	7.81 ± 0.51	11.8 ± 1.89	7.42 ± 1.27					
				OC[C@@H](O)[C@@H](O)[C@H](O)[C@@H](O)CO [sorbitol, reference compound]							about 28%	did not significantly affect the Caco-2 cell cycle			
1.7		1.24	1.72	O=c1[nH]cc(F)c(=O)[nH]1 [Dye 5-FU, 5-fluorouracil, reference compound]	12.7 ± 3.99	6.17	3.6	25.7 ± 1.02	16 ± 1.8	11.9 ± 2.1		significant increase in the rate of Caco-2 cells in the S-phase	3.6	approximately 10%	cell size increase with an enlarged and well-defined nucleus
2.06	227 to 228			CCCCCN1C(=CC=C2CCCC(C=Cc3sc4ccccc4[n+]3CCCCC)=C2Cl)Sc2ccccc21.[I-] [Dye 17, 2-(2-(2-Chloro-3-(2-(3-pentylbenzo[d]thiazol-2(3H)-ylidene)ethylidene)cyclohex-1-en-1-yl)vinyl)-3-pentylbenzo[d]thiazol-3-ium iodide]	2.26 ± 0.1	0.91	0.4	0.24 ± 0.17	11.2 ± 3.11	0.43 ± 0.26					
1.24	232 to 233			CCCCCCCCCCN1C(=Cc2sc3ccccc3[n+]2CCCCCCCCCC)Sc2ccccc21.[I-] [Dye 11, 3-Decyl-2-((3-decylbenzo[d]thiazol-2(3H)-ylidene)methyl)benzo[d]thiazol-3-ium iodide]	0.15 ± 0.38	0.72	0.6	0.66 ± 0.44	0.1 ± 0.69	0.94 ± 0.11					
0.68	229 to 231			CCCN1C=CC(=Cc2cc[n+](CCC)c3ccccc23)c2ccccc21.[I-] [Dye 14, 1-Propyl-4-((1-propylquinolin-4(1H)-ylidene)methyl)quinolin-1-ium iodide]	1.99 ± 0.25	0.99	1.5	9.84 ± 0.93	22.9 ± 0.68	8.03 ± 2.15					

— paper PMC9503608, “An Insight into Symmetrical Cyanine Dyes as Promising Selective Antiproliferative Agents in Caco-2 Colorectal Cancer Cells” (Molecules, 2022)
